Tests used:
[1] = target: T1, Prostaglandin G/H synthase 1 (Ovis aries, UniProt P05979)
T1 sequence (P05979 whole entry): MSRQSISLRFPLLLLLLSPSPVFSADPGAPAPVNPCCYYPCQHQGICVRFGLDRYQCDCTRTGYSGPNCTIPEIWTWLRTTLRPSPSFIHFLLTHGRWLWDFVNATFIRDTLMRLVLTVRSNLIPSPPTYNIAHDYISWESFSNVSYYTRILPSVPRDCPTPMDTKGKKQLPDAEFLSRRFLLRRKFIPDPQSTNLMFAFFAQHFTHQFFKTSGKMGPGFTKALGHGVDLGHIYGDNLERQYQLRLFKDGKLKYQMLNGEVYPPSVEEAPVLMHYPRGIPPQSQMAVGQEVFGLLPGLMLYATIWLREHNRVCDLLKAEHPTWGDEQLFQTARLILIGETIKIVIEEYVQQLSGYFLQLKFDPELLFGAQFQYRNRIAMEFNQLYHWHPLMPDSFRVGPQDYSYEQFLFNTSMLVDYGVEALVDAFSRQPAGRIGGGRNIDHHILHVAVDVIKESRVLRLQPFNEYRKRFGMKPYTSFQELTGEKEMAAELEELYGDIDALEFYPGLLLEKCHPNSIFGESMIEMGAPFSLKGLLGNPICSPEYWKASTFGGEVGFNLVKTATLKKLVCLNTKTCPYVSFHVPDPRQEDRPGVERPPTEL
Description: In vitro inhibition against ovine Prostaglandin G/H synthase 1

[2] = target: T2, Prostaglandin G/H synthase 1 (Ovis aries) (UniProt P05979); test: In vitro selectivity ratio of Prostaglandin G/H synthase 1 to Prostaglandin G/H synthase 2
T2 sequence (whole entry): T1 sequence (P05979 whole entry)

With `CC(C)Sc1cc(-c2ccccc2)c(-c2ccc(S(C)(=O)=O)cc2)c(=O)o1` the IC50 [1] was greater than 100 µM.
`CCc1cc(-c2ccccc2)c(-c2ccc(S(C)(=O)=O)cc2)c(=O)o1` gave an IC50 [1] of 8 µM.
Molecule `Cc1cc(-c2ccccc2)c(-c2ccc(S(C)(=O)=O)cc2)c(=O)o1` has an IC50 [1] of 615 µM.
`CSc1cc(-c2ccccc2)c(-c2ccc(S(C)(=O)=O)cc2)c(=O)o1` was tested, and the Ratio [2] was 35.7 and the IC50 [1] was greater than 100 µM.
With `CC(C)Oc1cc(-c2ccccc2)c(-c2ccc(S(C)(=O)=O)cc2)c(=O)o1` the Ratio [2] was 2 and the IC50 [1] was 4 µM.
Work on `COc1cc(-c2ccccc2)c(-c2ccc(S(C)(=O)=O)cc2)c(=O)o1` yielded a Ratio [2] of less than 0.52 and an IC50 [1] of 14.7 µM.
Work on `CCOc1cc(-c2ccccc2)c(-c2ccc(S(C)(=O)=O)cc2)c(=O)o1` yielded an IC50 [1] of 281 µM.
In the case of `CC(C)c1cc(-c2ccccc2)c(-c2ccc(S(C)(=O)=O)cc2)c(=O)o1`, the IC50 [1] is reported as 341 µM.
`CCSc1cc(-c2ccccc2)c(-c2ccc(S(C)(=O)=O)cc2)c(=O)o1` was tested, and the IC50 [1] was 386 µM.
